According to US20060039931A1, “Stable cream preparations of phenyl-pyridone compounds for topical application” (MEPHA AG, priority 2002, published 2006):

Experiment: Experiments on use of pyridone compounds in emulsions
Assay type: physicochemical
Source text: When an emulsion “breaks”, the oily and aqueous phases separate, leading to unwanted coalescence, i.e. a kind of confluence or coagulation of the constituents. This often results in a change in pH and may even cause the active ingredient to crystallize out. This disadvantageous property of pirfenidone is not discussed in said patents and patent applications and no teaching is offered to remedy the problem. Creams are merely cited as a possible topical form of application.

Structure (SMILES): Cc1ccc(=O)n(-c2ccccc2)c1 [pirfenidone, 5-methyl-1-phenyl-2-(1H)-pyridone]
- Behaviour in emulsions: behave as emulsion breakers
